Some test systems named below: HOP-62 NSCLC; DU-145 prostate; BT-549 breast; UACC-62 melanoma; SN12C renal; K-562 leukemia; OVCAR-3 ovarian; CAKI-1 renal; OVCAR-8 ovarian; COLO 205 colon.
Common to all, as to assay: growth of human tumour cells (NCI), 48 h

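Cells were grown in 96-well plates and exposed to each compound for 48 hours at five concentrations; endpoints were interpolated linearly between bracketing concentrations, or set to the highest concentration if not reached. At the GI50, growth is halved. TGI denotes the concentration required for complete inhibition of growth.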

In the case of `COc1ccc2c(c1)C(=O)c1c-2c(=O)n(CCCN(C)C)c2cc(OC)c(OC)cc12`, the GI50 with HOP-62 NSCLC was 0.682 µM; with DU-145 prostate it was 0.623 µM; in the experiment on BT-549 breast, 83.6 µM; in the experiment on UACC-62 melanoma, > 100 µM; with SN12C renal, 2.18 µM; in the experiment with K-562 leukemia, 4.75 µM. Besides, the GI50 was 13.7 µM with OVCAR-3 ovarian, 1.48 µM in the experiment with CAKI-1 renal, 4.6 µM with OVCAR-8 ovarian and 12.6 µM in the experiment on COLO 205 colon. The TGI is > 100 µM with HOP-62 NSCLC; 10.9 µM in the experiment on DU-145 prostate; > 100 µM with BT-549 breast; > 100 µM in the experiment on UACC-62 melanoma; 16.6 µM in the experiment with SN12C renal; 24 µM in the experiment with K-562 leukemia. In addition, the TGI with OVCAR-3 ovarian was 26.9 µM; with CAKI-1 renal, > 100 µM; with OVCAR-8 ovarian, 23 µM; in the experiment with COLO 205 colon it was 25.3 µM.
Turning to `N#Cc1cc2c(cc1Cl)Sc1nnc(Nc3cccc4ccccc34)n1S2(=O)=O`, the GI50 is 15.6 µM with HOP-62 NSCLC; 3.66 µM with DU-145 prostate; 14.6 µM in the experiment with BT-549 breast; 2.14 µM with UACC-62 melanoma; 2.51 µM in the experiment on SN12C renal; 4.08 µM with K-562 leukemia. The GI50 with OVCAR-3 ovarian is 1.77 µM; in the experiment with CAKI-1 renal it was 3.14 µM; in the experiment on OVCAR-8 ovarian it was 30.2 µM; in the experiment on COLO 205 colon it was 2.34 µM. The TGI in the experiment on HOP-62 NSCLC was 29.6 µM; in the experiment on DU-145 prostate, 12.9 µM; in the experiment on BT-549 breast, 28.9 µM; with UACC-62 melanoma, 5.28 µM; in the experiment with SN12C renal it was 6.73 µM; in the experiment on K-562 leukemia, > 100 µM. The TGI in the experiment with OVCAR-3 ovarian is 3.47 µM; with CAKI-1 renal, 10.9 µM; in the experiment on OVCAR-8 ovarian, > 100 µM; in the experiment with COLO 205 colon, 4.52 µM.
On to `c1ccc(C2CCCCC2)c(OCCCCCN2CCNCC2)c1`, for which the GI50 with HOP-62 NSCLC is 10.4 µM; in the experiment with DU-145 prostate it was 4.17 µM; in the experiment with BT-549 breast, 7.38 µM; in the experiment with UACC-62 melanoma it was 1.87 µM; with SN12C renal, 2.93 µM; in the experiment with K-562 leukemia, 0.313 µM. Moreover, the GI50 is 2.74 µM in the experiment with OVCAR-3 ovarian, 2.81 µM in the experiment on CAKI-1 renal, 13.4 µM with OVCAR-8 ovarian and 1.45 µM in the experiment on COLO 205 colon. Also, the TGI was found to be 28.5 µM in the experiment with HOP-62 NSCLC; 16.2 µM with DU-145 prostate; 37.9 µM with BT-549 breast; 3.62 µM with UACC-62 melanoma; 18.1 µM with SN12C renal; 1.7 µM in the experiment on K-562 leukemia. The TGI in the experiment on OVCAR-3 ovarian amounted to 11.1 µM; in the experiment on CAKI-1 renal it was 10.9 µM; in the experiment with OVCAR-8 ovarian, 43 µM; in the experiment with COLO 205 colon, 3.31 µM.
In the case of `c1ccc(CN2COc3c(ccc4c5c(ccc34)CN(Cc3ccccc3)CO5)C2)cc1`, the TGI in the experiment on HOP-62 NSCLC, in the experiment with DU-145 prostate, with BT-549 breast, in the experiment on UACC-62 melanoma, with SN12C renal and in the experiment with K-562 leukemia was > 100 µM throughout. The TGI with OVCAR-3 ovarian, in the experiment with CAKI-1 renal, in the experiment with OVCAR-8 ovarian and in the experiment on COLO 205 colon was > 100 µM in each case.
Regarding `CN(C)CCCn1c2c(c3cc4c(cc3c1=O)OCO4)C(=O)c1ccccc1-2`, the GI50 in the experiment with HOP-62 NSCLC was < 0.0318 µM; in the experiment with DU-145 prostate, 3.08 µM; with BT-549 breast, 5.52 µM; with UACC-62 melanoma, 1.05 µM; in the experiment on SN12C renal, 0.203 µM; in the experiment with K-562 leukemia, 0.0793 µM. Besides, the GI50 in the experiment with OVCAR-3 ovarian is 2.36 µM; in the experiment on CAKI-1 renal, 3.01 µM; in the experiment with OVCAR-8 ovarian it was 0.0576 µM; with COLO 205 colon it was 7.61 µM. Also, the TGI with HOP-62 NSCLC is 1.43 µM; in the experiment on DU-145 prostate, > 27.5 µM; in the experiment with BT-549 breast, 29 µM; in the experiment with UACC-62 melanoma, 9.57 µM; in the experiment on SN12C renal, 3.16 µM; in the experiment on OVCAR-3 ovarian, 6.46 µM. The TGI was 9.4 µM in the experiment on CAKI-1 renal, 0.922 µM in the experiment with OVCAR-8 ovarian and > 100 µM in the experiment with COLO 205 colon.
With `NC(=O)CC(N)c1nn[nH]n1` (centres undefined), the TGI with HOP-62 NSCLC, with DU-145 prostate, with BT-549 breast, in the experiment on UACC-62 melanoma, with SN12C renal and in the experiment with K-562 leukemia was > 100 µM throughout. Besides, the TGI in the experiment with OVCAR-3 ovarian, in the experiment with CAKI-1 renal, with OVCAR-8 ovarian and with COLO 205 colon was > 100 µM throughout.
Consider `COc1ccc(/C=N\Nc2nc(SCC(C)C)nc(-c3ccc(OC)cc3)c2C#N)cc1`, for which the GI50 in the experiment on HOP-62 NSCLC is 0.414 µM; in the experiment with DU-145 prostate it was 13.7 µM; in the experiment on BT-549 breast it was 15.7 µM; in the experiment with UACC-62 melanoma, 25.2 µM; in the experiment on SN12C renal it was 2.1 µM; in the experiment on K-562 leukemia it was 19.1 µM. For the same compound, the GI50 with OVCAR-3 ovarian is 6.71 µM; in the experiment with CAKI-1 renal it was 1.55 µM; with OVCAR-8 ovarian, 5.3 µM; in the experiment with COLO 205 colon, 3.72 µM. Further, the TGI was 10.8 µM in the experiment on HOP-62 NSCLC; > 100 µM with DU-145 prostate; 52.5 µM in the experiment on BT-549 breast; > 100 µM in the experiment on UACC-62 melanoma; 20.4 µM in the experiment on SN12C renal; > 100 µM in the experiment on K-562 leukemia. In addition, the TGI was 21.1 µM with OVCAR-3 ovarian, 3.96 µM in the experiment on CAKI-1 renal, 29.8 µM in the experiment on OVCAR-8 ovarian and 23.4 µM in the experiment with COLO 205 colon.

Values taken from PubChem BioAssay (NCI).
